Biological target: T1, mutant G12C K-RAS (Homo sapiens, UniProt P01116, G12C)
T1 construct: made in house; host or cells: E. coli BL21
Assay: covalent adduct formation (CAF) with mutant G12C K-RAS
Type: binding
Settings: for % CAF @ 10 μM,1 h: Table 6; for % CAF (60 min): Table 2, Pyrimidone Core-Morpholine Substituted, after 60 minutes at 10 micromolar
Method: Embodiments disclosed herein are further illustrated by the following examples in Tables 1-4 and the Examples hereinbelow. The Tables indicate the compound number, structure, the observed mass spectral molecular weight peak, and covalent adduct formation (CAF) with a mutant G12C K-RAS after 60 minutes at a concentration of 10 micromolar.

% CAF @ 10 μM,1 h [%]	% CAF (60 min) [%]	Compound
75.2		C=CC(=O)N1C[C@H](C)N(c2nc(=O)n3c4c(c(-c5cccc6ccccc56)c(Cl)cc24)OC[C@H]3CN2CCN(C)CC2)C[C@H]1C (atropisomer, axis not shown) [Example 294, (3R,10R)-7-((2S,5R)-4-acryloyl-2,5-dimethylpiperazin-1-yl)-9-chloro-3-((4-methylpiperazin-1-yl)methyl)-10-(naphthalen-1-yl)-2H-[1,4]oxazino[2,3,4-ij]quinazolin-5(3H)-one]
58.4		C=CC(=O)N1C[C@H](C)N(c2nc(=O)n3c4c(c(-c5cccc6ccccc56)c(Cl)cc24)OC[C@H]3CN2CCN(C)CC2)C[C@H]1C (atropisomer, axis not shown) [Example 295, (3R,10R)-7-((2S,5R)-4-acryloyl-2,5-dimethylpiperazin-1-yl)-9-chloro-3-((4-methylpiperazin-1-yl)methyl)-10-(naphthalen-1-yl)-2H-[1,4]oxazino[2,3,4-ij]quinazolin-5(3H)-one]
0		C=CC(=O)N1C[C@H](C)N(c2nc(=O)n3c4c(c(-c5c(O)cccc5F)c(Cl)cc24)OC[C@H]3CN2CCN(C)CC2)C[C@H]1C (atropisomer, axis not shown) [Example 300, (3R,10R)-7-((2S,5R)-4-acryloyl-2,5-dimethylpiperazin-1-yl)-9-chloro-10-(2-fluoro-6-hydroxyphenyl)-3-((4-methylpiperazin-1-yl)methyl)-2,3-dihydro-5H-[1,4]oxazino[2,3,4-ij]quinazolin-5-one]
52.1		C=CC(=O)N1C[C@H](C)N(c2nc(=O)n3c4c(c(-c5c(O)cccc5F)c(Cl)cc24)OC[C@H]3CN2CCN(C)CC2)C[C@H]1C (atropisomer, axis not shown) [Example 301, (3R,10S)-7-((2S,5R)-4-acryloyl-2,5-dimethylpiperazin-1-yl)-9-chloro-10-(2-fluoro-6-hydroxyphenyl)-3-((4-methylpiperazin-1-yl)methyl)-2,3-dihydro-5H-[1,4]oxazino[2,3,4-ij]quinazolin-5-one]
0		C=CC(=O)N1C[C@H](C)N(c2nc(=O)n3c4c(c(-c5c(O)cccc5F)c(Cl)cc24)OC[C@@H]3CN2CCN(C)CC2)C[C@H]1C (atropisomer, axis not shown) [Example 305, (3S,10R)-7-((2S,5R)-4-acryloyl-2,5-dimethylpiperazin-1-yl)-9-chloro-10-(2-fluoro-6-hydroxyphenyl)-3-((4-methylpiperazin-1-yl)methyl)-2,3-dihydro-5H-[1,4]oxazino[2,3,4-ij]quinazolin-5-one]
73.5		C=CC(=O)N1C[C@H](C)N(c2nc(=O)n3c4c(c(-c5cccc6ccccc56)c(Cl)cc24)OC[C@H]3Cn2cccn2)C[C@H]1C (atropisomer, axis not shown) [Example 306, (3R,10R)-3-((1H-pyrazol-1-yl)methyl)-7-((2S,5R)-4-acryloyl-2,5-dimethylpiperazin-1-yl)-9-chloro-10-(naphthalen-1-yl)-2,3-dihydro-5H-[1,4]oxazino[2,3,4-ij]quinazolin-5-one]
22.8		C=CC(=O)N1C[C@H](C)N(c2nc(=O)n3c4c(c(-c5cccc6ccccc56)c(Cl)cc24)OC[C@@H]3CN2CCN(C)CC2)C[C@H]1C (atropisomer, axis not shown) [Example 308, (3S,10S)-7-((2S,5R)-4-acryloyl-2,5-dimethylpiperazin-1-yl)-9-chloro-3-((4-methylpiperazin-1-yl)methyl)-10-(naphthalen-1-yl)-2,3-dihydro-5H-[1,4]oxazino[2,3,4-ij]quinazolin-5-one]
94.4		C=CC(=O)N1C[C@H](C)N(c2nc(=O)n3c4c(c(-c5cccc6ccccc56)c(Cl)cc24)OC[C@@H]3CN2CCN(C)CC2)C[C@H]1C (atropisomer, axis not shown) [Example 309, (3S,10R)-7-((2S,5R)-4-acryloyl-2,5-dimethylpiperazin-1-yl)-9-chloro-3-((4-methylpiperazin-1-yl)methyl)-10-(naphthalen-1-yl)-2,3-dihydro-5H-[1,4]oxazino[2,3,4-ij]quinazolin-5-one]
74.8		C=CC(=O)N1C[C@H](C)N(c2nc(=O)n3c4c(c(-c5c(O)cccc5F)c(Cl)cc24)OC[C@@H]3CN2CCN(C)CC2)C[C@H]1C (atropisomer, axis not shown) [Example 314, (3S,10S)-7-((2S,5R)-4-acryloyl-2,5-dimethylpiperazin-1-yl)-9-chloro-10-(2-fluoro-6-hydroxyphenyl)-3-((4-methylpiperazin-1-yl)methyl)-2,3-dihydro-5H-[1,4]oxazino[2,3,4-ij]quinazolin-5-one]
72.8		C=CC(=O)N1C[C@H](C)N(c2nc(=O)n3c4c(c(-c5cccc6ccccc56)c(Cl)cc24)OC[C@H]3Cn2ccnc2)C[C@H]1C (atropisomer, axis not shown) [Example 317, (3R,10R)-3-((1H-imidazol-1-yl)methyl)-7-((2S,5R)-4-acryloyl-2,5-dimethylpiperazin-1-yl)-9-chloro-10-(naphthalen-1-yl)-2,3-dihydro-5H-[1,4]oxazino[2,3,4-ij]quinazolin-5-one]
70.6		C=CC(=O)N1C[C@H](C)N(c2nc(=O)n3c4c(c(-c5cccc6ccccc56)c(Cl)cc24)OC[C@H]3Cn2ccnc2)C[C@H]1C (atropisomer, axis not shown) [Example 318, (3R,10S)-3-((1H-imidazol-1-yl)methyl)-7-((2S,5R)-4-acryloyl-2,5-dimethylpiperazin-1-yl)-9-chloro-10-(naphthalen-1-yl)-2,3-dihydro-5H-[1,4]oxazino[2,3,4-ij]quinazolin-5-one]
0		C=CC(=O)N1C[C@H](C)N(c2nc(=O)n3c4c(c(-c5c(C)ccc6[nH]ncc56)c(Cl)cc24)OC[C@H]3Cn2cccn2)C[C@H]1C (atropisomer, axis not shown) [Example 319, (3R,10S)-3-((1H-pyrazol-1-yl)methyl)-7-((2S,5R)-4-acryloyl-2,5-dimethylpiperazin-1-yl)-9-chloro-10-(5-methyl-1H-indazol-4-yl)-2,3-dihydro-5H-[1,4]oxazino[2,3,4-ij]quinazolin-5-one]
94.2		C=CC(=O)N1C[C@H](C)N(c2nc(=O)n3c4c(c(-c5c(C)ccc6[nH]ncc56)c(Cl)cc24)OC[C@H]3Cn2cccn2)C[C@H]1C (atropisomer, axis not shown) [Example 320, (3R,10R)-3-((1H-pyrazol-1-yl)methyl)-7-((2S,5R)-4-acryloyl-2,5-dimethylpiperazin-1-yl)-9-chloro-10-(5-methyl-1H-indazol-4-yl)-2,3-dihydro-5H-[1,4]oxazino[2,3,4-ij]quinazolin-5-one]
78.5		C=CC(=O)N1C[C@H](C)N(c2nc(=O)n3c4c(c(-c5cccc6ccccc56)c(Cl)cc24)OC[C@H]3CCCN2C[C@@H]3C[C@H]2CO3)C[C@H]1C (atropisomer, axis not shown) [Example 322, (3R,10S)-3-(3-((1S,4S)-2-oxa-5-azabicyclo[2.2.1]heptan-5-yl)propyl)-7-((2S,5R)-4-acryloyl-2,5-dimethylpiperazin-1-yl)-9-chloro-10-(naphthalen-1-yl)-2,3-dihydro-5H-[1,4]oxazino[2,3,4-ij]quinazolin-5-one]
0		C=CC(=O)N1C[C@H](C)N(c2nc(=O)n3c4c(c(-c5c(C)ccc6[nH]ncc56)c(Cl)cc24)OC[C@H]3CCCN2C[C@@H]3C[C@H]2CO3)C[C@H]1C (atropisomer, axis not shown) [Example 325, (3R,10S)-3-(3-((1S,4S)-2-oxa-5-azabicyclo[2.2.1]heptan-5-yl)propyl)-7-((2S,5R)-4-acryloyl-2,5-dimethylpiperazin-1-yl)-9-chloro-10-(5-methyl-1H-indazol-4-yl)-2,3-dihydro-5H-[1,4]oxazino[2,3,4-ij]quinazolin-5-one]
94.2		C=CC(=O)N1C[C@H](C)N(c2nc(=O)n3c4c(c(-c5c(C)ccc6[nH]ncc56)c(Cl)cc24)OC[C@H]3CCCN2C[C@@H]3C[C@H]2CO3)C[C@H]1C (atropisomer, axis not shown) [Example 326, (3R,10R)-3-(3-((1S,4S)-2-oxa-5-azabicyclo[2.2.1]heptan-5-yl)propyl)-7-((2S,5R)-4-acryloyl-2,5-dimethylpiperazin-1-yl)-9-chloro-10-(5-methyl-1H-indazol-4-yl)-2,3-dihydro-5H-[1,4]oxazino[2,3,4-ij]quinazolin-5-one]
	0	C=CC(=O)N1CCN(c2nc(=O)n3c4c(c(-c5c(O)cccc5F)c(Cl)cc24)OC[C@@H]3CO)[C@@H](C)C1 (single isomer, unassigned) [Example 24]
	84.7	C=CC(=O)N1CCN(c2nc(=O)n3c4c(c(-c5c(O)cccc5F)c(Cl)cc24)OC[C@@H]3CO)[C@@H](C)C1 (single isomer, unassigned) [Example 25]
34.2		C=CC(=O)N1C[C@H](C)N(c2nc(=O)n3c4c(c(-c5ccc(F)cc5F)c(Cl)cc24)OC[C@@H]3CN2CCC(F)(F)C2)C[C@H]1C (stereo in doubt) [Example 202]
85.6		C=CC(=O)N1C[C@H](C)N(c2nc(=O)n3c4c(c(-c5ccc(F)cc5F)c(Cl)cc24)OCC3CN2CCC(F)(F)C2)C[C@H]1C (stereo in doubt) [Example 207, (3R)-7-((2S,5R)-4-acryloyl-2,5-dimethylpiperazin-1-yl)-9-chloro-10-(2,4-difluorophenyl)-3-((3,3-difluoropyrrolidin-1-yl)methyl)-2H-[1,4]oxazino[2,3,4-ij]quinazolin-5(3H)-one]
66.1		C=CC(=O)N1C[C@H](C)N(c2nc(=O)n3c4c(c(-c5ccc(F)cc5F)c(Cl)cc24)OC[C@@H]3COC2CCN(C)C2)C[C@H]1C (stereo in doubt) [Example 313, (3S)-7-((2S,5R)-4-acryloyl-2,5-dimethylpiperazin-1-yl)-9-chloro-10-(2,4-difluorophenyl)-3-((((S)-1-methylpyrrolidin-3-yl)oxy)methyl)-2,3-dihydro-5H-[1,4]oxazino[2,3,4-ij]quinazolin-5-one]

Reference: patent US12162893B2 (Erasca, Inc., priority 2020, dated 2024)
